Data published in patent publication US5348970A, “Antifungal compound and compositions containing the compound” (Merck & Co., Inc., priority 1993, dated 1994).
In brackets after ≈: the same amount, converted by molar mass.

Key:
Type in all cases: cell-based
bacterial strains = test: Antibacterial activity in vitro (general statement); details: qualitative statement
Protocol: (§1) The antibacterial activity of the compound was determined using broth dilution assays. The compound was dissolved in DMSO at 10 mg/mL and serially diluted in Luria Broth (LB), composed of […]. The Enterococcal strains were grown in Brain Heart Infusion broth; Staphylococcus aureus (MB2865) was grown in LB; S. aureus (MB108) and (MB2949) and Proteus vulgaris were grown in Nutrient Broth with 2% yeast extract. All bacterial strains were incubated overnight at 37° C. The bacterial cells were diluted 10^-4 in LB to give approximately 5×10^4 to 1×10^5 colony forming units per milliliter. 180 μL of inoculated LB was added to the wells of a 96 well microtiter dish containing 20 μL of diluted inhibitor samples. The final concentration of the compound in the wells ranged from 500-0.00025 μg/ml. The microtiter dishes were incubated for 24 hours at 28° C. and visually inspected for growth. The minimum inhibitory concentration (MIC) was recorded as the lowest concentration of compound to prevent visible growth.

fungi = test: Antifungal activity in vitro (general statement); details: qualitative statement
Protocol: (§2) Minimum Inhibitory Concentrations The antifungal activity of the compound of formula 1 was determined using broth dilution assays. The compound was dissolved in DMSO at 3.7 mg/mL and serially diluted in 1% aqueous DMSO. The yeast strains including Candida species and Cryptococcal species were grown to exponential phase in a complex medium composed of 1% peptone, 0.5% yeast extract and 0.05% dextrose (CM) at 29° C. The yeast cells were diluted in CM to A600 =0.004 U/mL which was previously determined to be equal to 3000 colony forming units per milliliter. 180 uL of inoculated CM was added to the wells of a 96 well microtiter dish containing 20 μL of diluted inhibitor samples. The final concentration of the compound in the wells ranged from 37-0.01 μg/ml. The microtiter dishes were incubated for 18 hours at 29° C. and visually inspected for growth. The minimum inhibitory concentration (MIC) was recorded as the lowest concentration of compound to prevent visible growth.
(§3) The same procedure was used to determine the MIC of the compound against the filamentous fungi, Aspergillus fumigatus MF 5668, except a spore inoculum was prepared. Spores of A. fumigatus were obtained by washing a well sporulated slant of the organism growing on potato dextrose agar with 0.05% tween 80 solution. […]

Candida parapsilosis = test: Broth dilution MIC, antifungal activity; details: Lodderomyces parapsilosis; strain MY 1010; 18 hours, 29° C.
Protocol: as §2

Candida albicans = test: Broth dilution MIC, antifungal activity; details: strain MY 1055, 18 hours, 29° C.
Protocol: as §2

Cryptococcus neoformans = test: Broth dilution MIC, antifungal activity; details: 18 h
Protocol: as §2

Candida krusei = test: Broth dilution MIC, antifungal activity; details: Pichia kudriavzevii; strain MY 2168; 18 hours, 29° C.
Protocol: as §2

Candida tropicalis = test: Broth dilution MIC, antifungal activity; details: strain MY 2167, 18 hours, 29° C.
Protocol: as §2

Proteus vulgaris = test: Broth dilution MIC, antibacterial activity; details: strain MB 838, 24 hours, 28° C.
Protocol: as §1

Entercoccus faecium = test: Broth dilution MIC, antibacterial activity; details: 24 h
Protocol: as §1

Staphylococcus aureus = test: Broth dilution MIC, antibacterial activity; details: 24 h
Protocol: as §1

Aspergillus fumigatus = test: Broth dilution MIC, antifungal activity (spore inoculum); details: 18 h, strain MF 5668
Protocol: as §2, §3

`CCCCCCCCCC1OC1/C=C/C(=O)C1(O)C(=O)NC(CO)C1O` (stereo not drawn) [Compound 1] was tested, and the antibacterial activity (bacterial strains) was “antifungal and antibacterial activity”, the antifungal activity (fungi) was “antifungal and antibacterial activity” and the MIC (Candida parapsilosis) was 1.5 µg/mL (≈ 4.06 µM). For the same compound, the MIC (Candida albicans) was 7.4 µg/mL (≈ 20 µM), the MIC (Cryptococcus neoformans; strain MY 2061, 29° C.) was 7.4 µg/mL (≈ 20 µM) and the MIC (Cryptococcus neoformans; strain MY 2062, 29° C.) was 0.02 µg/mL (≈ 0.0541 µM). For the same compound, the MIC (Candida krusei) was greater than 37 µg/mL, the MIC (Candida tropicalis) was 7.4 µg/mL (≈ 20 µM) and the MIC (Proteus vulgaris) was greater than 500 µg/mL. It also gave an MIC (Entercoccus faecium; strain MB 5571, 28° C.) of 2 µg/mL (≈ 5.41 µM), an MIC (Entercoccus faecium; strain MB 5572, 28° C.) of 1 µg/mL (≈ 2.71 µM) and an MIC (Staphylococcus aureus; strain MB 108, 28° C.) of 0.5 µg/mL (≈ 1.35 µM). It also gave an MIC (Staphylococcus aureus; strain MB 2865, 28° C.) of 0.5 µg/mL (≈ 1.35 µM), an MIC (Staphylococcus aureus; strain MB 2949, 28° C.) of 125 to 250 µg/mL (≈ 338 to 677 µM) and an MIC (Aspergillus fumigatus) of 37 µg/mL (≈ 100 µM).
